{"source": "patent US20070298026A1", "about": "“Methods for Identifying Treatment and Inducing Infertility Using Smc1-Beta” (MOUNT SINAI SCHOOL OF MEDICINE Office of Industrial Liaison, priority 2003, published 2007)", "molecules": {"B1": {"name": "N-terminal protein: SMC1β N-terminal fragment, amino acids 174 to 420, 33 kDa polypeptide expressed in E. coli (protein, UniProt Q8NDV3 174-420, looked up, fragment)", "chain": "KLQKAEEDAQFNFNKKKNIAAERRQAKLEKEEAERYQSLLEELKMNKIQLQLFQLYHNEKKIHLLNTKLEHVNRDLSVKRESLSHHENIVKARKKEHGMLTRQLQQTEKELKSVETLLNQKRPQYIKAKENTSHHLKKLDVAKKSIKDSEKQCSKQEDDIKALETELADLDAAWRSFEKQIEEEILHKKRDIELEASQLDRYKELKEQVRKKVATMTQQLEKLQWEQKTDEERLAFEKRRHGEVQGN"}, "B2": {"name": "C-terminal protein: SMC1β C-terminal fragment, amino acids 820 to 1073, 35 kDa polypeptide expressed in E. coli (protein, UniProt Q8NDV3 820-1073, looked up, fragment)", "chain": "QLEYSRSHLKKKLNKINTLKETIQKGSEDIDHLKKAEENCLQTVNELMAKQQQLKDIRVTQNSSAEKVQTQIEEERKKFLAVDREVGKLQKEVVSIQTSLEQKRLEKHNLLLDCKVQDIEIILLSGSLDDIIEVEMGTEAESTQATIDIYEKEEAFEIDYSSLKEDLKALQSDQEIEAHLRLLLQQVASQEDILLKTAAPNLRALENLKTVRDKFQESTDAFEASRKEARLCRQEFEQVKKRRYDLFTQCFEHV"}}, "key": {"[1]": {"test_system": "Rec8 or STAG3", "assay": "Degradation of other cohesin subunits in testis nuclear extracts", "assay_type": "biochemical, mouse", "settings": "ATP added to testis nuclear extract"}, "[2]": {"test_system": "SMC1β", "assay": "SMC1β proteolysis/degradation assay in testis nuclear extracts (immunoblot)", "assay_type": "biochemical, mouse", "settings": "for effect of added SMC1β protein fragment on degradation of SMC1β: increasing amounts of fragment added to testis nuclear extract, anti-SMC1β immunoblot", "excerpt": "It is very likely, that phosphorylation and/or protein degradation play an important role in regulating the removal of SMC1β and its complex from meiotic chromosomes. Understanding this mechanism would fill a significant gap in our knowledge of the meiotic process and of regulation of SMC1β function. It is unlikely that association and dissociation of cohesins are regulated exclusively through Rec8, because Rec8 behaves differently from SMC1β and SMC3 (Eijpe et al., J. Cell Biol. 160:657-670,2003; and see below). As a first approach to address this question, a series of proteolysis assays were undertaken. In these assays, nuclear extracts from mouse testis were incubated under various conditions and investigated the intactness of SMC1β by immunoblotting.\nTo begin testing the effect of phosphorylation, nuclear extracts were prepared in the presence or absence of general phosphatase inhibitors (1 mM o-vanadate, 10 mM β-glycerophosphate). If a phosphorylated SMC1β is more prone to degradation, inhibited dephosphorylation should stimulate degradation. […] The effect of phosphatase inhibition can either be direct—on SMC1β phosphorylation—or indirect, i.e. on maintaining an activated state of the protease or of a regulator of the protease. The mechanism of phosphatase inhibition and the identification of enzymes that are involved are currently being examined.\nSpeculating that the 120-kDa product seen in degradation assays is a true intermediate of SMC1β degradation, two fragments of SMC1β that span either one of the two putative regions of cleavage, positioned at about 30 kDa distance from each of the termini, were subcloned and expressed in E. coli. Thus, an N-terminal or a C-terminal polypeptide of 33 or 35 kDa, respectively, was expressed and purified. While the N-terminal fragment was purified to near homogeneity (100 mM imidazole fraction), there were one major and a few minor contaminants in the C-terminal fragment preparation. The putative region of cleavage was identified at the center of these polypeptides (N-terminal fragment: amino acids 174 to 420; C-terminal fragment: amino acids 820 to 1073). These proteins were used in cleavage inhibition assays. […] Thus, there is early evidence for a cleavage site within the N-terminal region between amino acids 174 and 420, and the precise cleavage site is being determined.\nIn attempts to identify the protease cleavage site within SMC1β, N-terminal and C-terminal protein fragments of SMC1β were purified in increasing concentrations of imidazole in elution buffer and run on silver-stained SDS polyacrylamide gels. To assay degradation, increasing amounts of N- or C-terminal protein fragments were then added to a reaction containing extract incubated with and without competitor. Reactions were then separated eletrophoretically on SDS polyacrylamide gels, immunoblotted, and probed with anti-SMC1β antibody. […] Cleavage of the N-terminal fragment itself is currently being investigated."}, "[3]": {"molecular_target": "T1, human PEP (Homo sapiens, UniProt P48147)", "T1 sequence (P48147 1-710)": "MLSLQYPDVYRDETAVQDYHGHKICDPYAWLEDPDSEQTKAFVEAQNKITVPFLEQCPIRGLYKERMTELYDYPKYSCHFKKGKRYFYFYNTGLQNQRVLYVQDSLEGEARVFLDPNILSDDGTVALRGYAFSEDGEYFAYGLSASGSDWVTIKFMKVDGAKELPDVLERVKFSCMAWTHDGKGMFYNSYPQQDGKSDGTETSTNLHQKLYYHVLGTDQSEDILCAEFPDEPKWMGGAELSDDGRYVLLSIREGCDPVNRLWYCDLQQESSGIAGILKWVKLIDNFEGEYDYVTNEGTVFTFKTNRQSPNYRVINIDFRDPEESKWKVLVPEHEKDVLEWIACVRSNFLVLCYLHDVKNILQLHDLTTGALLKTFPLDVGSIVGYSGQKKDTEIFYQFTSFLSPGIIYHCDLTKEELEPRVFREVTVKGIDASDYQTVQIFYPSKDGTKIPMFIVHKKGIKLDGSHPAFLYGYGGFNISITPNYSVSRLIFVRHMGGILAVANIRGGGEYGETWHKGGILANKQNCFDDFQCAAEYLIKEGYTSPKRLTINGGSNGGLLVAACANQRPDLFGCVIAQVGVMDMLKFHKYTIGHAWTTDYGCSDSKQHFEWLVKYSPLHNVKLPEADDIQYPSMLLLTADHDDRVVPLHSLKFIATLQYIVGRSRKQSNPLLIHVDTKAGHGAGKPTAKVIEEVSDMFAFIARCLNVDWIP", "settings": "inhibitor from Calbiochem Inc.; cited from earlier work"}, "[4]": {"test_system": "spermatocytes", "assay": "Okadaic acid-induced premature transition of cultured spermatocytes into metaphase I", "assay_type": "cell-based", "settings": "wildtype mouse spermatocytes; 5 μM okadaic acid for 5 h", "excerpt": "As a result, 20 bivalents, each with two pairs of unseparated, closely apposed sister kinetochores and at least one chiasma became visible. […] Co-staining for γ-H2AX, which decreases from zygotene to pachytene, allowed for determination of the stage at which the cells were exposed to OA. Cells with 80 centromere signals were of pachytene origin (no γ-H2AX), and cells with 40 centromere signals were of zygotene origin (patchy γ-H2AX).\nMost antibodies used have been described (Eijpe et al., supra, 2000; Revenkova et al., supra, 2001; and 14. Eijpe et al., J. Cell Biol. 3,.657-670, 2003). Mouse anti-MLH1 was from BDPharMingen, rabbit-antiMLH1 from Calbiochem, and rabbit anti-SMC1α from Bethyl Labs Inc. Mouse anti-γH2AX was donated by A. Pastink, rabbit anti-SMC3 by J. -M. Peters, rabbit anti-RAP1 by T. de Lange, mouse anti-ATR by P. de Boer, mouse anti-MLH3 by P. Cohen, and goat anti-rat SCP3 by T. Ashley. Paraffin and frozen sections of mouse testis, and dry-down preparations of testis cell suspensions were prepared, incubated for immunocytochemistry and analyzed as described (Eijpe et al., supra, 2000;, Revenkova et al., supra, 2001; Eijpe et al., J. Cell Biol. 3, 657-670, 2003; Peters et al., Chromosome Res. 5:66-68, 1997). Mice were labeled in vivo with BrdU, and detected -the incorporated BrdU in sections and dry-down preparations as described before (Eijpe et al, supra, 2003). […]"}, "[5]": {"test_system": "type A spermatogonial cells", "settings": "cited from earlier work"}}, "note": "“Also recorded” adds a separate entry of the source."}
{"molecule": "Nc1ncnc2c1ncn2[C@@H]1O[C@H](COP(=O)(O)OP(=O)(O)OP(=O)(O)O)[C@@H](O)[C@H]1O", "note": "[ATP]", "values": [{"measurement": "effect of ATP on degradation of Rec8 or STAG3", "setting": "[1]", "value": "not enhanced by addition of ATP, but rather inhibited"}, {"measurement": "effect of ATP on SMC1β degradation", "setting": "[2]; ATP added to testis nuclear extract", "value": "increased the efficiency of the reaction; also recorded: stimulates SMC1β degradation"}]}
{"molecule": "CC(C)(C)OC(=O)NC(CCC(=O)NOC(=O)c1ccccc1)C(=O)N1CCCC1", "note": "(stereo not shown) [Boc-Glu(NHO-Bz)-Pyr]", "values": [{"measurement": "Ki", "setting": "[3]", "value": 30, "unit": "nM"}]}
{"molecule": "C=C1[C@@H](O)[C@@H]2O[C@]3(CC[C@H](/C=C/[C@@H](C)[C@@H]4CC(C)=C[C@@]5(O[C@H](C[C@@](C)(O)C(=O)O)CC[C@H]5O)O4)O3)CC[C@H]2O[C@@H]1[C@@H](O)C[C@H](C)[C@H]1O[C@@]2(CCCCO2)CC[C@H]1C", "note": "[OA, okadaic acid]", "values": [{"measurement": "effect on chromosome condensation and cohesion", "setting": "[4]", "value": "caused premature chromosome condensation from mid-pachytene on, without affecting sister chromatid arm and centromere cohesion"}]}
{"molecule": "stem cell factor: stem cell factor (SCF; kit ligand) added to induce meiosis in spermatogonial cultures", "values": [{"measurement": "cells that are 4N", "setting": "[5]; after 1 week of induction", "value": 40, "unit": "%"}, {"measurement": "total cell population that is haploid", "setting": "[5]; after 3 weeks of induction", "value": 58, "unit": "%"}]}
{"molecule": "B1", "values": [{"measurement": "effect of added SMC1β protein fragment on degradation of SMC1β", "setting": "[2]", "value": "inhibited the degradation of SMC1β"}, {"measurement": "effect of added SMC1β protein fragment on degradation of SMC1β", "setting": "[2]; listed as N-terminal 33-kDa fragment", "value": "identified as an inhibitor to protease cleavage"}, {"measurement": "effect of added SMC1β protein fragment on degradation of SMC1β", "setting": "[2]; listed as N-terminal peptide of SMC1β", "value": "inhibited specifically"}]}
{"molecule": "B2", "values": [{"measurement": "effect of added SMC1β protein fragment on degradation of SMC1β", "setting": "[2]", "value": "degradation was not affected"}]}
